In US7498404B2, “Compositions, methods and uses for a novel family of peptides” (priority 2004, dated 2009):

Legend:
[1] = system: Module 2 A-domain protein; assay: ATP-PPi exchange assay, Module 2 A-domain; format: biochemical, Brevibacillus texasporus; settings: 0.5 mM amino acid, 37° C., 15 min
Procedure: (§1) Cloning, overexpression, and purification of His10-tagged BT A-domain proteins. DNA fragments encoding the A-domains of the BT NRPS Modules 8, 5, 7, 4 and 2 (Bt8A, Bt5A, Bt7A, Bt4A and Bt2A) were PCR-amplified and the PCR products were inserted into the His10-tag recombinant protein expression vector pET16b (Novagen). The A-domain borders were determined as defined by (Konz, et al., 1999). The expression constructs were transformed into the E.coli BL21 -AI strain (Invitrogen). Transformants were grown in L-broth at 37° C. to an A600 of 0.6 and then induced with 1 mM IPTG (isopropyl-β-D-thiogalactopyranoside) plus 0.2% L-arabinose. The cells were allowed to grow for two additional hours at 30° C. before being harvested. Purification of the His10-tag recombinant proteins was achieved using the TALON metal affinity resins (BD Biosciences) under conditions recommended in the manual with modifications. Briefly, the E. coli cells were broken by sonication. Cell lysates were cleared by centrifugation at 25,000× g for one hour. His-tagged recombinant proteins were then incubated with the TALON resin, washed, and eluted with 500 mM imidazole. Eluted proteins were dialyzed against a buffer (50 mM HEPES, pH 8.0, 100 mM sodium chloride, 10 mM magnesium chloride, and 1 mM EDTA) and then analyzed with SDS PAGE plus Coomassie Blue staining. […] Concentrations of the purified proteins were determined by using the calculated molar extinction coefficient for the A280.
ATP-PPi exchange assay. ATP-PPi exchange assays were performed to determine the substrate specificity of an A-domain. ATP-PPi exchanges were assayed as previously described (Stachelhaus, et al., 1998) with minor modifications. The assay mixture contained 50 mM HEPES (pH 8.0), 100 mM NaCl, 10 mM MgCl2, 2 mM ATP, 0.5 mM amino acid, 0.05 mM PPi, 0.15 μCi tetrasodium [^32P]pyrophosphate. Exchange was initiated by addition of purified recombinant A-domain proteins to a total volume of 0.1 ml. The protein concentrations were 0.2 μM for Module 4 and Module 5 A-domains while 2 μM for Module 7 and Module 8 A-domains. After incubation at 37° C. for 15 min, the reaction was stopped by addition of 0.5 ml of Termination Mix (100 mM tetrasodium pyrophosphate, 3.5% HClO4, and 1.6% [w/v] activated charcoal). The charcoal was pelleted by centrifugation, washed first with 40 mM pyrophosphate plus 1.4% perchloric acid and then with water, and was re-suspended in 0.5 ml of water. The charcoal/water suspension was added to a scintillation vial containing 5.0 ml of scintillation fluid, and the bound radioactivity was determined by liquid scintillation counting. The apparent Km values were determined with substrate concentrations ranging from 0.1 to 10 mM.
(§2) Since a purified recombinant A-domain of an NRPS module can selectively and efficiently activate the cognate amino acid substrate of the NRPS module in an ATP-PPi exchange assay (Konz, et al., 1999; Mootz & Marahiel, 1997), ATP-PPi exchange assays have been used to experimentally establish NRPS module specificities and novel NRPS codons. Recombinant A-domains of Modules 8, 5, 7 ,4 and 2 of the BT NRPS were produced and purified as described in Methods and Materials. Almost completely soluble recombinant A-domain proteins were obtained. A-domain specificities were determined in ATP-PPi exchange and aa Km assays (see Methods and Materials), and the results are shown in FIG. 5. […]

straight run broilers = assay: Growth promoting Studies 3-1 and 3-2, pelleted starter feed, batteries; format: in vivo, chicken; settings: BT1583 12 ppm, BMD 50 ppm, COB 90 ppm, alone or combined; for 20-day cumulative weight gain, Mean: Table 18; for 21-day cumulative weight gain, estimated marginal Mean: Table 20; for 21-day cumulative weight gain, Duncan homogeneous subsets: Table 21; for 20-day cumulative feed conversion rate, Duncan homogeneous subsets: Table 25
Description: Eight (8) study repetitions per treatment were used, again with 4 birds per pen.

[2] = biological target: Module 8 A-domain protein (Brevibacillus texasporus, UniProt Q2VQ14); assay: ATP-PPi exchange assay, Module 8 A-domain; format: biochemical; settings: 0.5 mM amino acid, 2 μM protein, 37° C., 15 min
Procedure: as §1, with “His-tagged recombinant proteins were then incubated with the TALON resin, washed, and eluted with 500 mM imidazole.” left out
(§3) ATP-PPi exchange assay. […] The charcoal/water suspension was added to a scintillation vial containing 5.0 ml of scintillation fluid, and the bound radioactivity was determined by liquid scintillation counting. […]
as §2, with “Recombinant A-domains of Modules 8, 5, 7 ,4 and 2 of the BT NRPS were produced and purified as described in Methods and Materials. Almost completely soluble recombinant A-domain proteins were obtained.” left out

[3] = biological target: Module 5 A-domain protein (Brevibacillus texasporus, UniProt Q2VQ15); assay: ATP-PPi exchange assay, Module 5 A-domain; format: biochemical; settings: 0.5 mM amino acid, 0.2 μM protein, 37° C., 15 min
Procedure: as §1, with “His-tagged recombinant proteins were then incubated with the TALON resin, washed, and eluted with 500 mM imidazole.” left out
as §3
as §2, with “Recombinant A-domains of Modules 8, 5, 7 ,4 and 2 of the BT NRPS were produced and purified as described in Methods and Materials. Almost completely soluble recombinant A-domain proteins were obtained.” left out

[4] = biological target: Module 4 A-domain protein (Brevibacillus texasporus, UniProt Q2VQ15); assay: ATP-PPi exchange assay, Module 4 A-domain; format: biochemical; settings: 0.5 mM amino acid, 0.2 μM protein, 37° C., 15 min
Procedure: as §1, with “His-tagged recombinant proteins were then incubated with the TALON resin, washed, and eluted with 500 mM imidazole.” left out
as §3
as §2, with “Recombinant A-domains of Modules 8, 5, 7 ,4 and 2 of the BT NRPS were produced and purified as described in Methods and Materials. Almost completely soluble recombinant A-domain proteins were obtained.” left out

Sequence of Module 5 A-domain protein (Q2VQ15 entry or part of it): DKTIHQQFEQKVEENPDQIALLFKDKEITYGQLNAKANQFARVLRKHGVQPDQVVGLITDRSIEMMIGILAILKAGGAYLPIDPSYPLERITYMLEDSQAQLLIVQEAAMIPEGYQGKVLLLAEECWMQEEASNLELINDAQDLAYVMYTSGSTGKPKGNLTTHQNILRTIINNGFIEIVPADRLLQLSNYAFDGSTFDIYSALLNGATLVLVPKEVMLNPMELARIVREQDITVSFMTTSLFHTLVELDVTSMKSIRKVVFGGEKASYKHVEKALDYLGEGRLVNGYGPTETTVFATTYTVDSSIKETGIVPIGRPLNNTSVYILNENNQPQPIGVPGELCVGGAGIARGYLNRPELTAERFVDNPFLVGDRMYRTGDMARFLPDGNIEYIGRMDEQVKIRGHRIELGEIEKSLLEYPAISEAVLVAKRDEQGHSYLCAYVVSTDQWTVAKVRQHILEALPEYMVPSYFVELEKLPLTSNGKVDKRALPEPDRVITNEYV
Sequence of Module 8 A-domain protein (Q2VQ14 entry or part of it): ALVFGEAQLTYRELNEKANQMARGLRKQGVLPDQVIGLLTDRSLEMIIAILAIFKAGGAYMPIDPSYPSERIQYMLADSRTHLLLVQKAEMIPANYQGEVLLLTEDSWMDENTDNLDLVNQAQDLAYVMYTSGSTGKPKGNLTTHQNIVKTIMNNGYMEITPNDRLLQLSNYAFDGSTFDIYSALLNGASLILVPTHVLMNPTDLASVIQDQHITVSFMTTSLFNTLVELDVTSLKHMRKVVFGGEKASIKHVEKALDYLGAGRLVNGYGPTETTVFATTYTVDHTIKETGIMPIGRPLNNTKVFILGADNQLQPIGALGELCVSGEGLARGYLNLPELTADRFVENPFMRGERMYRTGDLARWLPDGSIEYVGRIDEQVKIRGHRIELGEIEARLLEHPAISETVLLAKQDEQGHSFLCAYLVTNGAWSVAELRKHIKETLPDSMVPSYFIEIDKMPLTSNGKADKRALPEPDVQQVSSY
Sequence of Module 4 A-domain protein (Q2VQ15 entry or part of it): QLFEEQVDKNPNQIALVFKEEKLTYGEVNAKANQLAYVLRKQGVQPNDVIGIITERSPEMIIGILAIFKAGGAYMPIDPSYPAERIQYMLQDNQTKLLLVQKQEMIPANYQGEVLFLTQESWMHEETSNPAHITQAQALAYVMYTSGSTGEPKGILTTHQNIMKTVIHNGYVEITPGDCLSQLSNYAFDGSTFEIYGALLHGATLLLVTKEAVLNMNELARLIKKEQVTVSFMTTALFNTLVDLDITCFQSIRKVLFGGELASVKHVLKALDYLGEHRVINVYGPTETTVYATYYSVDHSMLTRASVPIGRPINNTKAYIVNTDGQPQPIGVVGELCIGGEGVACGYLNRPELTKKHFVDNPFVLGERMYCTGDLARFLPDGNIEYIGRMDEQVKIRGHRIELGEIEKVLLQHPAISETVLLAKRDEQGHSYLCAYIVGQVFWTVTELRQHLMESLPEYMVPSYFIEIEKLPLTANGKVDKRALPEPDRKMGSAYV

CSCC[C@H](N)C(=O)O [L-Met]
relative substrate activation (highest activity defined as 100%) [1]: 100%

N[C@@H](Cc1ccccc1)C(=O)O [L-Phe]
relative substrate activation (highest activity defined as 100%) [1]: 3.5%

Bacitracin MD [BMD, reference compound]
20-day cumulative weight gain, Mean (straight run broilers): 832.9688 | 21-day cumulative weight gain, estimated marginal Mean (straight run broilers): 832.969 | 21-day cumulative weight gain, Duncan homogeneous subsets (straight run broilers): 832.9688 | 20-day cumulative feed conversion rate, Duncan homogeneous subsets (straight run broilers): 1.3397

CC[C@H](C)[C@H](N)C(=O)O [L-Ile]
relative substrate activation (highest activity defined as 100%) [2]: 4% | relative substrate activation (highest activity defined as 100%) [3]: 23% | relative substrate activation (highest activity defined as 100%) [4]: 100% | relative substrate activation (highest activity defined as 100%) [1]: 19%

CC[C@@]1([C@@H]2O[C@@H]([C@H]3O[C@@](O)(CO)[C@H](C)C[C@@H]3C)C[C@@H]2C)CC[C@H]([C@]2(C)CC[C@]3(C[C@H](O)[C@@H](C)[C@@H]([C@@H](C)[C@@H](OC)[C@H](C)C(=O)O)O3)O2)O1 [Monensin, reference compound]
20-day cumulative weight gain, Mean (straight run broilers): 792.8438 | 21-day cumulative weight gain, estimated marginal Mean (straight run broilers): 792.844 | 21-day cumulative weight gain, Duncan homogeneous subsets (straight run broilers): 792.8438 | 20-day cumulative feed conversion rate, Duncan homogeneous subsets (straight run broilers): 1.3712
